{"source": "patent US12091701B2", "about": "“Screening method for candidate substances for active component to prevent or treat at least one disease selected from the group consisting of renal hypofunction, chronic kidney disease and kidney failure” (KARYDO THERAPEUTIX, INC., priority 2016, dated 2024)", "key": {"[1]": {"test_system": "FGF23 gene (the skull)", "test": "qRT-PCR of FGF23 in the skull of HP model mice given soluble human Oscar-Fc fusion protein", "format": "in vivo, mice (C57BL/6N)", "conditions": "mice on diet with high phosphorus content (2% inorganic phosphorus) 4 weeks; 10 mg/kg intraperitoneally weekly, five times; vs physiological saline; normalized to Maea; p=0.026; n=5 to 6", "excerpt": "(§1) Subsequently, the mixture was vortexed vigorously for 15 seconds."}, "[2]": {"test_system": "Fgg gene (kidneys)", "test": "qRT-PCR of Fgg gene (fibrinogen) in the kidneys of HP model mice given soluble Oscar-Fc fusion protein", "format": "in vivo, mice (C57BL/6N)", "conditions": "HP4W_sOscar vs HP4W_NS; diet with high phosphorus content 4 weeks; p=0.00071; n=5 to 6", "excerpt": "as §1\nTo evaluate the effect of the soluble Oscar-Fc fusion protein on kidney function, the expression of a kidney function marker was confirmed in the kidneys of HP4W_NS, HP4W_sOscar, and LP4W of Reference Example 2."}, "[3]": {"test_system": "PRP genes (Prb1, Prh1, Prp2, and Prpmp5) (the parotid glands)", "conditions": "mice on diet with high phosphorus content 4 weeks; 10 mg/kg intraperitoneally weekly, five times; vs physiological saline; n=5 to 6", "protocol": "After the wet weights of the collected organs and tissue were measured, the organs and tissue were rapidly frozen in liquid nitrogen and stored at −80° C."}, "[4]": {"test_system": "FGF23 in plasma", "test": "Measurement of concentration of FGF23 in plasma by ELISA method in HP model mice", "format": "in vivo, mice (C57BL/6N)", "conditions": "mice on diet with high phosphorus content 4 weeks; 10 mg/kg intraperitoneally weekly, five times; vs physiological saline; p=0.049", "protocol": "The concentration of FGF23 in plasma was measured using an ELISA kit sold by KAINOS Laboratories, Inc. (TCY4000). A plasma sample cryopreserved in a freezer was thawed on ice, and the sample undiluted or the sample diluted 5-fold with standard solution 1 (FGF-23 concentration, 0 pg/ml) supplied with the kit was used for measurement.\n50 μl of the diluted sample or a sample for a calibration curve was added to each well of an ELISA plate supplied with the kit. The plate was sealed, followed by stirring and incubating at room temperature for 2 hours. After the two hours, the sample in each well was aspirated and discarded. 300 μl of a wash solution supplied with the kit was then added to each well, and the wash solution was removed. This operation was performed four times. After the wash solution was thoroughly removed, 100 μl of an enzyme-labeled antibody solution (FGF-23 Conjugate) supplied with the kit was added to each well, and the plate was sealed, followed by stirring and incubating at room temperature for 1 hour. After the 1 hour, the sample in each well was aspirated and discarded. […] Absorbance at 450 nm was then measured with an absorbance microplate reader (Multiskan GO, Thermo Fisher Scientific Inc.). The concentration of FGF23 in plasma was calculated by making a calibration curve from the measurement result of recombinant FGF23 supplied with the kit."}}, "data": [{"substance": "soluble human Oscar-Fc fusion protein: Soluble human Oscar-Fc fusion protein of SEQ ID NO: 2 (human Oscar sequence, hinge, human IgG1); inhibits ligand binding to Oscar", "values": [{"measurement": "expression of FGF23 in the skull (qRT-PCR)", "setting": "[1]", "result": "suppressed"}, {"measurement": "expression of the Fgg gene in the kidneys (qRT-PCR)", "setting": "[2]", "result": "significantly suppressed"}, {"measurement": "expression of PRP genes (Prb1, Prh1, Prp2, and Prpmp5) in the parotid glands (qRT-PCR)", "setting": "[3]", "result": "suppressed"}, {"measurement": "increase in the concentration of FGF23 in plasma (ELISA)", "setting": "[4]", "result": "statistically significantly suppressed"}]}]}
